Like-named read-outs stand apart in the source and are kept apart here.

The values below come from US6482805B2 (Parker Hughes Institute, priority 1998, dated 2002).

The test system of one data set is HIV-1. Kind of data set: Anti-HIV-1 activity, p24 antigen assay in infected PBMC (Example 1). In kind it is cell-based. The settings on record: for anti-HIV activity, in words: compared with parent AZT derivatives. How it is done:
Subsequently, cells were cultured in 96-well microtiter plates (100 μl/well; 2×10^6/ml, triplicate wells) in the presence and absence of various concentrations (0.00 μM to 100 μM) of drugs for 7 days. Aliquots of culture supernatants were removed from the wells on the 7th day after infection for p24 antigen enzyme immunoassay as an indication of viral replication. Erice et al. Antimicrob. Agents and Chemother. […] Agents and Chemother. […] Percent inhibition of virus replication was calculated by comparing the p24 antigen values from the test drug-treated infected cells with p24 antigen values from untreated infected cells. […] Cell viability was quantified by a colorimetric […] assay. F. M. Uckun et al., Antimicrob. Agents and Chemother.

The next data set deals with human sperm. Put plainly: Sperm motility assay by CASA (Example 1). In kind it is cell-based. Particulars: for spermicidal activity, in words: compared with related derivatives; for EC50: 3 hours incubation at 37° C., CASA, read-out: EC50, sperm motility. As for the experimental part:
All donor specimens were obtained after informed consent and in compliance with the guidelines of the Wayne Hughes Institute Institutional Review Board. Motile sperm (≧10×10^6/ml), were suspended in 0.5 ml of Biggers, Whitten, and Whittingam's medium (BWW) containing 25 mM HEPES (Irvine Scientific, Santa Ana, Calif.), and 0.3% bovine serum albumin (BSA; Fraction V, Sigma Chemical Co, St. Louis, Mo.) in the presence and absence of serial two-fold dilutions of test substance (300 μM to 4.6 μm) in 1% DMSO. The stock solutions of synthetic WHI compounds were prepared in DMSO (10 mg/ml) and diluted in DMSO to yield the desired concentrations. Corresponding volume of DMSO (1%) was added to control tubes. N-9 was diluted in BWW-0.3% BSA (pH 7.4) to yield the desired concentrations (4.6 to 300 μM). After 3 hours of incubation at 37° C., the percentage of motile sperm was evaluated by computer-assisted sperm analysis (CASA) as described [L. J. Burkman, Fertil. Steril. […] The percent motilities were compared with sham-treated control suspensions of motile sperm. […] Non-linear regression analyses were used to determine the EC50 values from the concentration effect curves using GraphPad PRISM software (San Diego, Calif.).
For evaluating sperm motion kinematics using CASA, 4 μl each of sperm suspension was loaded into two 20-μm Microcell chambers (Conception Technologies) that was placed onto a counting chamber at 37° C. At least 5-8 fields per chamber were scanned for analysis using a Hamilton Thorne Integrated Visual Optical System (IVOS), version 10 instrument (Hamilton Thorne Research Inc., Danvers, Mass.). Each field was recorded for 30 seconds. […] The performance of the analyzer was periodically checked using the play-back function. The attributes of sperm kinematic parameters evaluated included numbers of motile (MOT) and progressively (PRG) motile sperm; curvilinear velocity (VCL; a measure of the total distance traveled by a given sperm during the acquisition divided by the time elapsed); average path velocity (VAP; the spatially averaged path that eliminates the wobble of the sperm head), straight line velocity (VSL; the straight-line distance from beginning to end of track divided by time taken), beat cross frequency (BCF, frequency of sperm head crossing sperm average path), the amplitude of lateral head displacement (ALH; the mean width of sperm head oscillation) and the derivatives, straightness ([…]); linearity (LIN=100×VSL/VCL; departure of sperm track from a straight line). Data from each individual cell track were recorded and analyzed. At least 200 motile sperm were analyzed for each aliquot sampled.

In the next data set the test system is sperm acrosome. Kind of data set: Sperm acrosome and membrane integrity by FITC-lectin staining, confocal, SEM and TEM (Example 4). It is filed as cell-based, human. The settings on record: 100 μM WHI compounds or 10 μM Cal A23187, 3 hours. How it is done:
The percentages of sperm with an intact acrosome were evaluated by fluorescence microscopy (Olympus BX-60) following fixation and ethanol permeabilization of the sperm pellets and subsequent staining with fluorescein (FITC)-conjugated Pisum sativum lectin (Sigma). In positive control sperm, the acrosome reaction was induced by incubating (3 hours at 37° C.) the sperm suspension with 10 μm calcium ionophore (Cal) A23187 (Sigma). […] The percentage of sperm positive for PI were determined by flow cytometry using a FACS Vantage flow cytometer (Becton Dickinson and Co., Mountain View, Calif.). The sperm in the swim-up fractions were identified by their characteristic forward and 90° angle light scattering properties [O. J. D'Cruz and G. G. Haas, Jr. Fertil. Steril. 58, 633 (1992)]. All analyses were done using the 488-nm excitation from an krypton/argon laser with a 635-nm band pass filter for PI emission. The percentage of sperm positive for PI staining were determined using cutoff signals for membrane-intact motile sperm.
Ethanol permeabilized and air-dried sperm smears were stained sequentially with the three fluorescent markers, FITC-Pisum sativum, TOTO-3 iodide, and Nile red, each marking a different target (acrosome, nucleus, and plasma membrane of permeabilized sperm respectively). Samples were examined under a BioRad MRC-1024 Laser Scanning Confocal Microscope (BioRad Laboratories, Hercules, Calif.) equipped with a krypton/argon mixed gas laser (excitation lines 488, 568, and 647 nm) and mounted on a Nikon Eclipse E800 series upright microscope. The fluorescence emission of fluorescein, TOTO-3 iodide, and Nile red from the acrosomal region, nucleus, and the plasma membrane of sperm after ethanol permeabilization were simultaneously detected using the 598/40 nm, 522 DF32, and 680 DF32 emission/filter respectively. Confocal images were obtained using a Nikon 60× (NA 1.35) objective lens and Kalman collection filter. Digitized images were processed with the Adobe Photoshop software (Adobe Systems, Mountain View, Calif.). Final images were printed using a Fujix Pictography 3000 (Fuji Photo Film Co., Tokyo, Japan) color printer.
High-resolution low-voltage scanning electron microscopy was utilized for topographical imaging of different membrane domains over the sperm head as described [M. H. Stoffel et al. Molecular. Reprod. Develop. 34, 175 (1993); S. L. Erlandsen et al. Scanning 11, 169 (1989)]. […] Washed sperm suspensions were placed on 0.1% poly-L-lysine-coated glass chips and allowed to adhere to the glass over a 60 minute incubation period on ice. The supernatants were decanted, and adherent cells were fixed in 1% paraformaldehyde and 1% glutaraldehyde in 0.14 M sodium cacodylate buffer for 3 hours. To preserve plasma membrane integrity, sperm were post-fixed in 1% osmium tetroxide (OSO4) containing 0.1% ruthenium red in 0.14 M cacodylate buffer for 1 hour at 4° C. All samples were dehydrated through an ascending ethanol series, critical point dried, and coated with approximately 2 nm of platinum using ion beam sputtering with argon (4 mA at 10 ke V; Ion Tech Ltd., Middlesex, England). All samples were examined in a Hitachi S-900 SEM at an accelerating voltage of 2 keV. Sperm were observed under low magnification (×2,000-5000) and representative sperm were photographed under intermediate magnification (×18,000-25,000). In each specimen evaluated, at least 200 sperm were scanned for the intactness of sperm acrosomal region.
For transmission electron microscopy, treated sperm were fixed in 3% glutaraldehyde in 5% sucrose in 0.2 M cacodylate buffer for 3 hours at room temperature. The samples were post-fixed in 1% OSO4, 5% sucrose and 0.1% ruthenium red for 2 hours at 4° C. The samples were dehydrated in ascending ethanol series, and embedded in Spurr's epoxy. Thin sections (90 nm) were prepared on a Reichert-Jung Ultracut E and stained with uranyl acetate and lead citrate.

On to “5-Bromo-6-methoxy-5,6-dihydro-3 ′-deoxythymidine 5′-[Phenyl methoxyalaninyl phosphate] [WHI-12]”, for which, in the data set with HIV-1, the “anti-HIV activity, in words” value is “reduction in the anti-HIV activity”. In addition, in the data set with human sperm, the “spermicidal activity, in words” value is recorded as “improvement of the spermicidal activity”.

In the case of “5-Bromo-6-methoxy-5,6-dihydro-3′-deoxythymidine 5′-[p-Bromo phenyl methoxyalaninyl phosphate] [WHI-11]”, the “anti-HIV activity, in words” value with HIV-1 is given as “reduction in the anti-HIV activity”. Moreover, the “spermicidal activity, in words” value in the data set on human sperm was “improvement of the spermicidal activity”.

Consider “5-bromo-6-methoxy-5,6-dihydro-AZT [WHI-01]”, for which, in the data set on HIV-1, the “anti-HIV activity, in words” value was “without significantly decreasing the anti-HIV activity”. Moreover, in the data set on human sperm, the EC50 came to 104 µM.

As to `Cc1cn([C@H]2C[C@H](N=[N+]=[N-])[C@@H](CO)O2)c(=O)[nH]c1=O` [AZT, 3′-azido-3′-deoxythymidine, reference compound], in the data set on HIV-1 (Human immunodeficiency virus 1, PBMC, 168 h, read-out: IC50, HIV-1 replication (p24 antigen)), the 50% inhibitory concentration (IC50) came to 0.006 µM. Besides, the “effect on sperm motion parameters (CASA kinematics)” value with human sperm is “did not alter the sperm motion parameters”. Also, the “effect on sperm motility” value with human sperm (concentrations as high as 300 μm) is recorded as “did not affect sperm motility”.

With `CNc1ccc2oc(C[C@H]3O[C@@]4(CC[C@H]3C)O[C@H]([C@H](C)C(=O)c3ccc[nH]3)[C@H](C)C[C@H]4C)nc2c1C(=O)O` [Cal A23187, calcium ionophore (Cal) A23187, reference compound], the “sperm head topography by scanning electron microscopy” value with sperm acrosome was “blebbing or vesiculation, fenestration, and loss of plasma and acrosomal membranes”.

Take `COC1N([C@H]2C[C@H](N)[C@@H](CO)O2)C(=O)NC(=O)C1(C)Br` (stereo partly shown) [WHI-03, 5-Bromo-6-methoxy-5,6-dihydro-3′-amino-3 ′-deoxythymidine]: the melting point is 188 to 190 °C (dec.). The “anti-HIV activity, in words” value with HIV-1 is reported as “substantially reduced anti-HIV activity”. Further, the EC50 with human sperm (Homo sapiens, Sperm) amounted to 12 µM.

Usually EC50 stands for the concentration that produces a half-maximal response. As a reminder, the IC50 is the midpoint of a concentration-inhibition curve. One may read the melting point as the temperature of the solid-liquid transition.
